# Target: T1, human TLR9 (Homo sapiens, UniProt Q9NR96)
# T1 construct: host or cells: HEK293 (HEK-Blue hTLR9)
# T1 sequence (Q9NR96 26-1032): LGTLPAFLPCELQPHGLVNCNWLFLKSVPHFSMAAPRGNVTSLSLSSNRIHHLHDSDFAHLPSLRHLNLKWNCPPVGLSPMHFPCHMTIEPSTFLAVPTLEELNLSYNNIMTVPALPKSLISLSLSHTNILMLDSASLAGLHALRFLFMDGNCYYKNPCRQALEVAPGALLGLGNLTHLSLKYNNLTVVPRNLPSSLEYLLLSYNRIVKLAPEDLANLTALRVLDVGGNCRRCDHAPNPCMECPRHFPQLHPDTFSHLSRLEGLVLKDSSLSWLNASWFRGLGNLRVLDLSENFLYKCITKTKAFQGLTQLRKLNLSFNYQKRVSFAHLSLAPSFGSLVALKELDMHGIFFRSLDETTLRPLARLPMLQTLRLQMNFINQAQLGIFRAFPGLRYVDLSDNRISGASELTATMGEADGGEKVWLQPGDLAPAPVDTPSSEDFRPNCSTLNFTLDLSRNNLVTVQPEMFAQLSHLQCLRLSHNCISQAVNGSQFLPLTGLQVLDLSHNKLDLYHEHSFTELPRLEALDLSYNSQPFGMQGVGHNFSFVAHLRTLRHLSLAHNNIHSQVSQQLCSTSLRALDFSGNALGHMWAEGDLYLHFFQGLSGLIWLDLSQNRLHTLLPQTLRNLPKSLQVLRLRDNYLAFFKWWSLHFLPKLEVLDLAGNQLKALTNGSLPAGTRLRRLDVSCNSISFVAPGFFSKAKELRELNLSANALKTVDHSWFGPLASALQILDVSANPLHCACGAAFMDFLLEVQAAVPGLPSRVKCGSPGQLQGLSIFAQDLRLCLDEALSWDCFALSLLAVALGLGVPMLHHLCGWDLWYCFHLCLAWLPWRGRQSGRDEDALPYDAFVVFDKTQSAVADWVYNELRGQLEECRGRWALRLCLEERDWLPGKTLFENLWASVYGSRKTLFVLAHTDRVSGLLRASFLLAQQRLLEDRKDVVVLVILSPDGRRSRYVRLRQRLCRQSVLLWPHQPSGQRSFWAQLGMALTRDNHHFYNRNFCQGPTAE
# Assay: HEK293-Blue-hTLR-9 cells assay
# Assay type: cell-based
# Conditions: HEK293-Blue-hTLR9 cells, ODN2006 stimulation, 20 hrs, SEAP reporter; read-out: HEK/hTLR9 IC50
row,IC50 [nM],SMILES
1,111,"[2H]c1ccc2c(N3C[C@@H]4CN(c5ccc(CCN6C[C@H](OC)[C@@H](N)C6)cn5)CCN4[C@H](C)C3)ccc(C#N)c2n1 [Example 109, 5-[(4R,9aR)-8-[5-[2-[(3S,4S)-3-amino-4-methoxy-pyrrolidin-1-yl]ethyl]-2-pyridyl]-4-methyl-3,4,6,7,9,9a-hexahydro-1H-pyrazino[1,2-a]pyrazin-2-yl]-2-deuterio-quinoline-8-carbonitrile]"
2,119,"[2H]c1ccc2c(N3C[C@@H]4CN(c5ncc(N6C[C@@H]7C[C@H]6CN7)cc5C)CCN4[C@@H](C)C3)ccc(C#N)c2n1 [Example 111, 5-[(4S,9aR)-8-[5-[(1S,4S)-2,5-diazabicyclo[2.2.1]heptan-2-yl]-3-methyl-2-pyridyl]-4-methyl-3,4,6,7,9,9a-hexahydro-1H-pyrazino[1,2-a]pyrazin-2-yl]-2-deuterio-quinoline-8-carbonitrile]"
3,126,"Cc1cc(N2CC3(CN(C)C3)C2)cnc1N1CCN2[C@@H](C1)CN(c1cc(=O)n(C)c3ncccc13)C[C@@H]2C [Example 113, 4-[(4S,9aR)-4-methyl-8-[3-methyl-5-(6-methyl-2,6-diazaspiro[3.3]heptan-2-yl)-2-pyridyl]-3,4,6,7,9,9a-hexahydro-1H-pyrazino[1,2-a]pyrazin-2-yl]-1-methyl-1,8-naphthyridin-2-one]"
4,110,"[2H]c1ccc2c(N3C[C@@H]4CN(c5ncc(N6C[C@H]7NCCO[C@@H]7C6)cc5C)CCN4[C@@H](C)C3)ccc(C#N)c2n1 [Example 114, 5-[(4S,9aR)-8-[5-[(4aR,7aR)-3,4,4a,5,7,7a-hexahydro-2H-pyrrolo[3,4-b][1,4]oxazin-6-yl]-3-methyl-2-pyridyl]-4-methyl-3,4,6,7,9,9a-hexahydro-1H-pyrazino[1,2-a]pyrazin-2-yl]-2-deuterio-quinoline-8-carbonitrile]"
5,140,"[2H]c1ccc2c(N3C[C@@H]4CN(c5ccc(N6C[C@@H](N)[C@H](OC)C6)nc5)CCN4[C@@H](C)C3)ccc(C#N)c2n1 [Example 115, 5-[(4S,9aR)-8-[6-[(3R,4R)-3-amino-4-methoxy-pyrrolidin-1-yl]-3-pyridyl]-4-methyl-3,4,6,7,9,9a-hexahydro-1H-pyrazino[1,2-a]pyrazin-2-yl]-2-deuterio-quinoline-8-carbonitrile]"
6,42,"[2H]c1ccc2c(N3C[C@@H]4CN(c5ccc(CCN6C[C@@H](N)[C@@H](F)C6)nc5)CCN4[C@@H](C)C3)ccc(C#N)c2n1 [Example 117, 5-[(4S,9aR)-8-[6-[2-[(3R,4S)-3-amino-4-fluoro-pyrrolidin-1-yl]ethyl]-3-pyridyl]-4-methyl-3,4,6,7,9,9a-hexahydro-1H-pyrazino[1,2-a]pyrazin-2-yl]-2-deuterio-quinoline-8-carbonitrile]"
7,148,"[2H]c1ccc2c(N3C[C@@H]4CN(c5ncc(N6CC(C)(N)C6)cc5C)CCN4[C@@H](C)C3)ccc(C#N)c2n1 [Example 118, 5-[(4S,9aR)-8-[5-(3-amino-3-methyl-azetidin-1-yl)-3-methyl-2-pyridyl]-4-methyl-3,4,6,7,9,9a-hexahydro-1H-pyrazino[1,2-a]pyrazin-2-yl]-2-deuterio-quinoline-8-carbonitrile]"
8,85,"[2H]c1ccc2c(N3C[C@@H]4CN(c5ccc6c(n5)CCNC6)CCN4[C@@H](C)C3)ccc(C#N)c2n1 [Example 121, 5-[(4S,9aR)-4-methyl-8-(5,6,7,8-tetrahydro-1,6-naphthyridin-2-yl)-3,4,6,7,9,9a-hexahydro-1H-pyrazino[1,2-a]pyrazin-2-yl]-2-deuterio-quinoline-8-carbonitrile]"
9,51,"[2H]c1ccc2c(N3C[C@@H]4CN(c5ccc(CCN6C[C@H](OC)[C@@H](N)C6)cn5)CCN4[C@@H](C)C3)ccc(C#N)c2n1 [Example 122, 5-[(4S,9aR)-8-[5-[2-[(3S,4S)-3-amino-4-methoxy-pyrrolidin-1-yl]ethyl]-2-pyridyl]-4-methyl-3,4,6,7,9,9a-hexahydro-1H-pyrazino[1,2-a]pyrazin-2-yl]-2-deuterio-quinoline-8-carbonitrile]"
10,107,"[2H]c1ccc2c(N3C[C@@H]4CN(c5ccc(CN6C[C@@H](N)[C@H](OC)C6)c(C)n5)CCN4[C@@H](C)C3)ccc(C#N)c2n1 [Example 123, 5-[(4S,9aR)-8-[5-[[(3R,4R)-3-amino-4-methoxy-pyrrolidin-1-yl]methyl]-6-methyl-2-pyridyl]-4-methyl-3,4,6,7,9,9a-hexahydro-1H-pyrazino[1,2-a]pyrazin-2-yl]-2-deuterio-quinoline-8-carbonitrile]"
11,55,"C[C@@H]1CN(c2ccc(C#N)c3ncccc23)C[C@@H]2CN(CCc3ccc(N4C[C@H]5NCCO[C@@H]5C4)nc3)CCN21 [Example 124, 5-[(4R,9aS)-8-[2-[6-[(4aR,7aR)-3,4,4a,5,7,7a-hexahydro-2H-pyrrolo[3,4-b][1,4]oxazin-6-yl]-3-pyridyl]ethyl]-4-methyl-3,4,6,7,9,9a-hexahydro-1H-pyrazino[1,2-a]pyrazin-2-yl]quinoline-8-carbonitrile]"
12,120,"C[C@H]1CN(c2ccc(C#N)c3ncccc23)C[C@@H]2CN(c3ccc([C@@H]4CNCCO4)cc3)CCN21 [Example 125, 5-[(4S,9aS)-4-methyl-8-[4-[(2R)-morpholin-2-yl]phenyl]-3,4,6,7,9,9a-hexahydro-1H-pyrazino[1,2-a]pyrazin-2-yl]quinoline-8-carbonitrile]"

row,SMILES,IC50 [nM]
1,"[2H]c1ccc2c(N3C[C@@H]4CN(c5ccc(N6CC7CCC(C6)N7)nc5)CCN4[C@@H](C)C3)ccc(C#N)c2n1 [Example 112, 5-[(4S,9aR)-8-[6-(3,8-diazabicyclo[3.2.1]octan-3-yl)-3-pyridyl]-4-methyl-3,4,6,7,9,9a-hexahydro-1H-pyrazino[1,2-a]pyrazin-2-yl]-2-deuterio-quinoline-8-carbonitrile]",82

# From patent US20220340597A1, “HEXAHYDRO-1H-PYRAZINO[1,2-A]PYRAZINE COMPOUNDS FOR THE TREATMENT OF AUTOIMMUNE DISEASE” (Hoffmann-La Roche Inc., priority 2019, published 2022)
